From PMC9127750, “Structure-based design of CDC42 effector interaction inhibitors for the treatment of cancer” (Cell reports, 2022)
“And” between values parts separate entries of the source, which are not always exact repeats. Equal entries are not always repeated.

Tested on: WM3248 melanoma cells, 486 antibodies
Assay: Reverse phase protein arrays (RPPA)
Type: cell-based, Human
Text: Pellets were snap frozen in liquid nitrogen and shipped to MD Anderson Cancer Center core RPPA facility for RPPA analysis (Table S5). Three biological replicates for each sample were generated.
Nomenclatures on the RPPA heatmaps: name_of_antibody.species_of_antibody.status_of_antibody. V - antibody validated; C - validation of antibody in progress; Q - antibody nonspecific; E – under evaluation; antibodies raised in M - mouse, G - goat, R - rabbit, or T - rat.

[1] = level 10 normalized to 0, mean of 3

CN(C)c1cccc(Nc2cc(-c3ccccc3)nc(C3CCNCC3)n2)c1 [ARN22089, N1,N1-dimethyl-N3-(6-phenyl-2-(piperidin-4-yl)pyrimidin-4-yl)benzene-1,3-diamine]
INPP4b.R.C Norm_5 (level 5 vs 0, replicates): 0.976 and 1.019
IR.b.R.C Norm_5 (level 5 vs 0, replicates): 1.056 and 1.010
IRF.1.R.V Norm_5 (level 5 vs 0, replicates): 0.974 and 0.981 and 1.030
IRF.3.R.V Norm_5 (level 5 vs 0, replicates): 0.924 and 0.890 and 0.996
IRS1.R.V Norm_5 (level 5 vs 0, replicates): 1.029 and 1.046 and 0.995
IRS2.R.C Norm_5 (level 5 vs 0, replicates): 1.195 and 0.736 and 1.046
JAB1.M.C Norm_5 (level 5 vs 0, replicates): 0.954 and 0.981 and 0.972
JNK2.R.V Norm_5 (level 5 vs 0, replicates): 0.643 and 1.507
JNK_pT183_Y185.R.C Norm_5 (level 5 vs 0, replicates): 1.060 and 0.929 and 0.988
Jagged1.R.V Norm_5 (level 5 vs 0, replicates): 1.010 and 1.054 and 0.889
Jak2.R.V Norm_5 (level 5 vs 0, replicates): 0.979 and 0.991
KAP1.R.V Norm_5 (level 5 vs 0, replicates): 1.116 and 1.063 and 1.099
KEAP1.R.V Norm_5 (level 5 vs 0, replicates): 1.026 and 0.913 and 0.925
LAD1.R.V Norm_5 (level 5 vs 0, replicates): 0.952 and 0.910 and 1.029
LC3A.B.R.C Norm_5 (level 5 vs 0, replicates): 1.119 and 0.843
LCN2.R.V Norm_5 (level 5 vs 0, replicates): 1.996 and 0.913 and 0.985
LDHA.R.C Norm_5 (level 5 vs 0, replicates): 1.253 and 1.735 and 0.318
LRP6_pS1490.R.V Norm_5 (level 5 vs 0, replicates): 1.015 and 1.011 and 1.114
Lasu1.R.V Norm_5 (level 5 vs 0, replicates): 0.982 and 1.009 and 0.926
Lck.R.V Norm_5 (level 5 vs 0, replicates): 1.005 and 1.060 and 0.966
Lyn.R.V Norm_5 (level 5 vs 0, replicates): 0.801 and 0.941 and 0.791
MACC1.R.V Norm_5 (level 5 vs 0, replicates): 0.899 and 0.883 and 1.061
MAPK_pT202_Y204.R.C Norm_5 (level 5 vs 0, replicates): 1.017 and 0.736 and 0.856
MCT4.R.V Norm_5 (level 5 vs 0, replicates): 1.005 and 0.979 and 1.159
MDM2_pS166.R.V Norm_5 (level 5 vs 0, replicates): 1.021 and 1.261 and 0.787
MEK1.R.V Norm_5 (level 5 vs 0, replicates): 1.082 and 0.785 and 1.201
MEK1_pS217_S221.R.V Norm_5 (level 5 vs 0, replicates): 0.926
MEK2.R.V Norm_5 (level 5 vs 0, replicates): 1.048 and 1.127 and 0.942
MERIT40.R.C Norm_5 (level 5 vs 0, replicates): 0.988 and 1.019 and 0.961
MERIT40_pS29.R.V Norm_5 (level 5 vs 0, replicates): 1.133 and 1.001
METTL3.R.V Norm_5 (level 5 vs 0, replicates): 0.968 and 1.099 and 0.891
MIF.R.C Norm_5 (level 5 vs 0, replicates): 0.931 and 0.965 and 0.948
MIG6.R.V Norm_5 (level 5 vs 0, replicates): 0.932 and 0.886 and 1.000
MITF.R.V Norm_5 (level 5 vs 0, replicates): 0.975 and 1.014
MLH1.M.V Norm_5 (level 5 vs 0, replicates): 0.900 and 0.937 and 0.942
MLKL.R.V Norm_5 (level 5 vs 0, replicates): 0.966 and 0.982 and 0.886
MMP2.R.V Norm_5 (level 5 vs 0, replicates): 0.925 and 0.948 and 0.967
MMP14.R.V Norm_5 (level 5 vs 0, replicates): 1.097 and 1.257
MR1.M.C Norm_5 (level 5 vs 0, replicates): 0.897 and 0.992
MRAP.R.C Norm_5 (level 5 vs 0, replicates): 1.109 and 1.057 and 0.987
MSH2.R.C Norm_5 (level 5 vs 0, replicates): 0.939 and 1.022 and 0.901
MSH6.R.C Norm_5 (level 5 vs 0, replicates): 1.190 and 0.909
MSI2.R.C Norm_5 (level 5 vs 0, replicates): 1.108 and 1.110 and 1.024
MTCO1.M.V Norm_5 (level 5 vs 0, replicates): 0.944 and 0.964 and 1.334
MTSS1.M.C Norm_5 (level 5 vs 0, replicates): 0.924 and 0.926 and 1.000
Mcl.1.R.V Norm_5 (level 5 vs 0, replicates): 0.943 and 0.925 and 1.013
MelanA.R.C Norm_5 (level 5 vs 0, replicates): 0.973 and 1.097
Melanoma.gp100.R.C Norm_5 (level 5 vs 0, replicates): 1.016
Merlin.R.C Norm_5 (level 5 vs 0, replicates): 1.257 and 0.725
Midkine.R.V Norm_5 (level 5 vs 0, replicates): 0.866 and 0.942 and 0.987
Mitofusin.1.R.V Norm_5 (level 5 vs 0, replicates): 1.058 and 0.973
Mitofusin.2.R.V Norm_5 (level 5 vs 0, replicates): 0.945
Mnk1.R.V Norm_5 (level 5 vs 0, replicates): 1.014 and 0.983
mTOR.R.V Norm_5 (level 5 vs 0, replicates): 1.006 and 1.101 and 0.990
mTOR_pS2448.R.C Norm_5 (level 5 vs 0, replicates): 1.104 and 1.133 and 1.002
TSC1.R.C Norm_10 Average [1]: 0.899
TTF1.R.V Norm_10 Average [1]: 1.078
TUFM.R.V Norm_10 Average [1]: 1.221
Tuberin.R.V Norm_10 Average [1]: 0.835
Tuberin_pT1462.R.V Norm_10 Average [1]: 1.064
Twist.M.C Norm_10 Average [1]: 1.019
Tyro3.R.V Norm_10 Average [1]: 1.386
U.Histone.H2B.R.C Norm_10 Average [1]: 0.890
UBAC1.R.V Norm_10 Average [1]: 1.014
UBQLN4.M.C Norm_10 Average [1]: 0.961
UGT1A.M.V Norm_10 Average [1]: 1.050
UQCRC2.M.C Norm_10 Average [1]: 1.112
UVRAG.R.C Norm_10 Average [1]: 0.935
VASP.R.V Norm_10 Average [1]: 0.873
VAV1.R.C Norm_10 Average [1]: 0.923
VEGFR.2.R.V Norm_10 Average [1]: 0.957
VEGFR.2_pY1175.R.C Norm_10 Average [1]: 0.964
VHL.EPPK1.M.C Norm_10 Average [1]: 1.030
VHL.R.C Norm_10 Average [1]: 0.986
Vinculin.M.V Norm_10 Average [1]: 0.988
WIPI1.R.C Norm_10 Average [1]: 1.318
WIPI2.R.C Norm_10 Average [1]: 0.944
WTAP.R.V Norm_10 Average [1]: 1.224
Wee1.R.C Norm_10 Average [1]: 0.915
Wee1_pS642.R.C Norm_10 Average [1]: 0.900
XBP.1.G.C Norm_10 Average [1]: 1.193
